pIC50: −log10 of the molar value. Like-named read-outs stand apart in the source and are kept apart here.

Here are results for four compounds from patent US6087366A (The Trustees of Columbia University in the City of New York, priority 1996, dated 2000).

Data set [1] concerns neuronally-differentiated PC12 cells. As to the kind of experiment: survival of neuronally-differentiated PC12 cells after NGF withdrawal. In kind it is cell-based, rat. To be noted: for EC (maximal): Rattus norvegicus. As to the method: (§1) For survival experiments, naive or neuronally-differentiated PC12 cells were washed extensively in serum-, NGF-free medium as previously described (6,24) and replated onto collagen-coated 24-well tissue culture dishes at a density of approximately 2×10^5 cells per well. The final volume of medium in each well, including all drugs was 1 ml. To allow time for blockade of DNA synthesis, naive PC12 cells were, in some cases, pretreated with drug for 16 hr prior to serum withdrawal. NGF-treated neuronally-differentiated cells were not pretreated with drug prior to serum deprivation. At appropriate times of culture under the desired conditions, cells were lysed and the numbers of viable cells were determined as previously described (24). The number of intact nuclei was determined by counting in a hemacytometer. All counts were performed in triplicate, and survival data are expressed as a percentage of cells plated on day 0+/-SEM.

Assay in data set [2]: as above
In kind it is cell-based, rat. To be noted: rat; post-mitotic neuronally-differentiated PC12 cells, with NGF, day 3; read-out: death in the presence of NGF. As to the method: as §1

Data set [3] relates to c-Jun kinase (JNK). As to the kind of experiment: c-Jun kinase activation in NGF-deprived neuronally-differentiated PC12 cells. To be noted: flavopiridol 1 μM, olomoucine 200 μM. It counts as cell-based, rat. As to the method: (§2) c-Jun kinase (JNK) was affinity purified from PC12 cell extracts with GST-c-Jun (a gift from Dr. Michael Karin, University of California, San Diego) bound to GSH-agarose beads (Sigma) by methods previously described (34). c-Jun kinase activity was determined by an in vitro solid-phase kinase assay as described previously (34). Activated c-Jun kinase was isolated from PC12 cells treated with 0.5 mM sodium arsenite for 30 min. […] GST-c-Jun was resolved on a 8.5% SDS gel and incorporation of ^32 PO4 was quantified by autoradiography and densitometry.

For data set [4], the system named is c-Jun kinase (JNK). As to the kind of experiment: in vitro solid-phase kinase assay, phosphorylation of GST-c-Jun by activated JNK. In kind it is biochemical, rat. To be noted: for pIC50: read-out: IC50, inhibition of GST-c-Jun phosphorylation by activated JNK in vitro. As to the method:
as §2

In a further data set the test system is rat sympathetic neurons. As to the kind of experiment: survival of rat sympathetic neurons after NGF withdrawal. It counts as cell-based. To be noted: for survival of NGF-deprived sympathetic neurons: flavopiridol 1 μM, iso-olomoucine 200 μM. As to the method: The cells were plated in 0.5 ml of medium per well in collagen-coated 24-well dishes at a density of approximately 0.5 ganglia per well. […] To eliminate non-neuronal cells, a mixture of uridine and 5-fluorodeoxyuridine (10 μM each) were added to the cultures on the following day. […] The appropriate drug and/or NGF or anti-mouse NGF antibody (1:200 dilution) was added in a final volume of 0.5 ml of the same medium described above. At appropriate times, the numbers of viable, phase bright neurons were determined by strip counting as previously described (33). All survival data are expressed as relative to the original number of cells counted for each well. All experimental points were performed in triplicate and are reported as mean+/-SEM,

The subject of data set [5] is neuronally-differentiated PC12 cells. As to the kind of experiment: rate of protein synthesis ([3H]-leucine incorporation) in neuronally-differentiated PC12 cells. In kind it is cell-based, rat. As to the method: (§3) Neuronally-differentiated PC12 cells and sympathetic neurons were plated on 24-well dishes as described above. After the cultures were pretreated with the appropriate drug for 1 hr, 5 μCi [^3 H]-leucine was added per well and the cells were allowed to incorporate the isotope for 10 hr. The cultures were washed and prepared for scintillation counting as described above for thymidine incorporation. Background levels of radioactivity was determined by treating wells with 5 μg/ml cycloheximide. All experimental points were performed in triplicate and the data are presented relative to untreated control samples as mean+/-SEM.

In another data set the test system is sympathetic neurons. As to the kind of experiment: rate of protein synthesis ([3H]-leucine incorporation) in sympathetic neurons. It counts as cell-based. To be noted: Rattus norvegicus, Sympathetic neuron. As to the method:
as §3

The nature of data set [6]: survival of naive PC12 cells with or without serum. It counts as cell-based, rat. The note with it: rat, naive pc12 cells; serum-containing medium, day 3; read-out: death of naive PC12 cells in the presence of serum. As to the method: as §1
The test system of data set [7] is naive PC12 cells. As to the kind of experiment: survival of naive PC12 cells with or without serum. In kind it is cell-based, rat. The note with it: 16 hrs pretreatment, serum withdrawal. As to the method: as §1
For data set [8], the system named is naive PC12 cells. As to the kind of experiment: [3H]-thymidine incorporation by naive PC12 cells. It counts as cell-based, rat. The note with it: compared with olomoucine. As to the method:
Naive PC12 cells were plated in collagen-coated 24-well dishes at a density of 4×10^5 per well in RPMI 1640 medium containing 3 μM insulin (Sigma) or 10% horse serum and 5% fetal calf serum. […] The cells were pretreated with the appropriate drug for a period of 16 hr prior to the addition of 1 μCi per well of [^3 H]-thymidine (NEN Products, Dupont). The cells were exposed to thymidine for 1-2 hour and then washed three times with cold PBS. Each well was extracted with 1 ml of 10% TCA at 4° C. for 1 hr, and the insoluble material was solubilized overnight at room temperature with 0.3 ml 1N NaOH. After neutralization with an equal volume of 1 N HCl, the solution was quantified by scintillation counting. The level of background counts was determined by treating cells with 10 μM aphidicolin. All experimental points were performed in triplicate. All data are presented relative to untreated control samples as mean+/-SEM.

A further data set concerns cdk1. The note with it: read-out: IC50, inhibition of cdk1 activity; cited from earlier work.
The subject of another data set is GST-ERK1. To be noted: read-out: IC50, inhibition of GST-ERK1 activity in vitro; cited from earlier work.
Where [9] appears, read: neuronally-differentiated PC12 cells.

Take `COc1cccc(-c2cc(=O)c3ccccc3o2)c1N` [PD 098059]: the NGF-stimulated neurite regeneration entry in [1] (20-100 μM, PC12 cells passaged into serum-free medium with NGF) is recorded as “effectively suppressed NGF-stimulated neurite regeneration”. In addition, the “effect on NGF-promoted survival” value in data set [1] (20-100 μM, naive or neuronally-differentiated PC12 cells, serum-free medium with or without NGF) was “neither blocked nor mimicked the capacity of NGF to promote survival”.
As to `CN1CC[C@H](c2c(O)cc(O)c3c(=O)cc(-c4ccccc4Cl)oc23)[C@H](O)C1` [flavopiridol, (-) cis-5,7-dihydroxy-2-(2-chlorophenyl) -8[4-(3-hydroxy-1-methyl) -piperidinyl]-4H-benzopyran-4-one], the cytotoxicity at 72 h in data set [2] is around 20%; in [6], 75%. The EC (maximal) in data set [1] (PC-12, neuronally-differentiated PC12 cells, serum-free medium, read-out: concentration of maximal protection from death induced by NGF withdrawal) came to 1 µM. Also, the “protection from cell death after NGF withdrawal” value in data set [1] (setting [9]) was “good maintenance of survival even 5 days after NGF withdrawal”. The “level of JNK activation after NGF deprivation” value with c-Jun kinase (JNK) [3] is listed as “did not decrease the level of JNK activation”. Moreover, the “effect on in vitro phosphorylation of GST-c-Jun” value with c-Jun kinase (JNK) [4] (12 μM) was “no effect”; in the data set with c-Jun kinase (JNK) [4] (50 μM), “significantly inhibited phosphorylation”. Also, the pIC50 on c-Jun kinase (JNK) [4] was below 4.92. The “survival of NGF-deprived sympathetic neurons” value with rat sympathetic neurons is “full survival for at least four days”. For the same compound, the inhibition at 1 µM in data set [5] (Rattus norvegicus, PC-12) is around 25%; with sympathetic neurons, around 25%. The “survival of serum-deprived naive PC12 cells” value in the data set with naive PC12 cells [7] is “died somewhat more quickly than control cells”.
Regarding `Cn1cnc2nc(NCCO)nc(NCc3ccccc3)c21` [iso-olomoucine], the “inhibition of thymidine incorporation” value with naive PC12 cells [8] is “far less effective than olomoucine”. Further, the “protection from cell death after NGF withdrawal” value in [1] (setting [9]) was “far less effective than olomoucine”. Also, the “survival of NGF-deprived sympathetic neurons” value in the data set with rat sympathetic neurons is reported as “ineffective”. In addition, the negative logarithm of the IC50 (pIC50) in the data set with cdk1 is below 3.30.
Take `Cn1cnc2c(NCc3ccccc3)nc(NCCO)nc21` [olomoucine, 2-(2-hydroxyethylamino) -6-benzylamino-9-methylpurine]: the cytotoxicity at 72 h was around 20% in data set [2] and 75% in [6]. In addition, in [1] (PC-12, read-out: concentration of maximal protection from death induced by NGF withdrawal), the EC (maximal) is 200 µM. Moreover, in the data set on c-Jun kinase (JNK) [3], the “level of JNK activation after NGF deprivation” value is “did not decrease the level of JNK activation”. The pIC50 on c-Jun kinase (JNK) [4] is around 4.00; with GST-ERK1, 4.52. Moreover, the viability at 200 µM in the data set with rat sympathetic neurons (Rattus norvegicus, Sympathetic neuron, 168 h, read-out: neurons still viable) was around 75%. For the same compound, the “effect on protein synthesis” value in data set [5] (PC12 cell cultures, 200 μM) is recorded as “no effect”. Also, in the data set on sympathetic neurons, the inhibition at 200 µM is around 30%. For the same compound, the “survival of serum-deprived naive PC12 cells” value in the data set with naive PC12 cells [7] is recorded as “died at about the same rate as control cells”.

A word on the pIC50: it is −log10 of the IC50, conventionally taken in molar units. In general, inhibition refers to the relative decrease from the control value, in per cent. A high value points to a response far below the control.
